Test results published in patent US12691101B2, “Compound and method for preventing or treating of respiratory diseases comprising the same as an active ingredient” (YONSEI UNIVERSITY, UNIVERSITY - INDUSTRY FOUNDATION (UIF), priority 2019, dated 2026).

Tests used:
SLC26A7 = molecular target: T1, SLC26A7 (Homo sapiens, UniProt Q8TE54); assay: Cl^−/HCO3^− exchange in CHO-K1 cells expressing SLC26A7; type: cell-based
T1 construct: expressed in transfected cells; host or cells: CHO-K1
Method: (§1) (A) The inhibition of mouse pendrin (mPDS)-mediated Cl^−/I^− exchange activity by F56 was measured in CHO-K1 cells (mean±S.E., n=5). The indicated concentration of F56 was pretreated for 10 minutes. (B) Summary of dose-response for inhibition of the human pendrin (hPDS)-mediated (closed circle, FIG. (a), C) and mPDS-mediated (open circle) Cl^−/I^− exchange activity. (C-F) Representative traces of intracellular pH in CHO-K1 cells expressing SLC26A3, SLC26A6, SLC26A7 and SLC26A9 were shown. The application of Cl^− free solution induced intracellular alkalization by Cl^−/HCO3^− exchange. The indicated concentration of F56 was pretreated for 10 minutes. (G) the effect of F56 (100 μM) on the CFTR chloride channel activity was measured in FRT cells expressing human CFTR. The CFTR current was activated by 20 μM forskolin and was inhibited by 10 μM CFTRinh-172. (H) The effect of F56 (100 μM) on the AN01 chloride channel activity was measured in FRT cells expressing human AN01. Before 10 minutes prior to AN01 activation by 100 μM ATP, F56 was added. (Right) Peak current summary (mean±S.E., n=3). (I) The effect of F56 on the hERG (Kv11.1) potassium channel activity was measured in HEK293T cells expressing human Kv11.1 (mean±S.E., n=4). […] (J) The effect of F56 on the 5-HT2A channel activity was measured in FRT cells expressing human 5-HT2A (mean±S.E., n=4). […]

SLC26A9 = molecular target: T2, SLC26A9 (Homo sapiens, UniProt Q7LBE3); assay: Cl^−/HCO3^− exchange in CHO-K1 cells expressing SLC26A9; type: cell-based
T2 construct: expressed in transfected cells; host or cells: CHO-K1
T2 sequence (Q7LBE3 whole entry, species assumed): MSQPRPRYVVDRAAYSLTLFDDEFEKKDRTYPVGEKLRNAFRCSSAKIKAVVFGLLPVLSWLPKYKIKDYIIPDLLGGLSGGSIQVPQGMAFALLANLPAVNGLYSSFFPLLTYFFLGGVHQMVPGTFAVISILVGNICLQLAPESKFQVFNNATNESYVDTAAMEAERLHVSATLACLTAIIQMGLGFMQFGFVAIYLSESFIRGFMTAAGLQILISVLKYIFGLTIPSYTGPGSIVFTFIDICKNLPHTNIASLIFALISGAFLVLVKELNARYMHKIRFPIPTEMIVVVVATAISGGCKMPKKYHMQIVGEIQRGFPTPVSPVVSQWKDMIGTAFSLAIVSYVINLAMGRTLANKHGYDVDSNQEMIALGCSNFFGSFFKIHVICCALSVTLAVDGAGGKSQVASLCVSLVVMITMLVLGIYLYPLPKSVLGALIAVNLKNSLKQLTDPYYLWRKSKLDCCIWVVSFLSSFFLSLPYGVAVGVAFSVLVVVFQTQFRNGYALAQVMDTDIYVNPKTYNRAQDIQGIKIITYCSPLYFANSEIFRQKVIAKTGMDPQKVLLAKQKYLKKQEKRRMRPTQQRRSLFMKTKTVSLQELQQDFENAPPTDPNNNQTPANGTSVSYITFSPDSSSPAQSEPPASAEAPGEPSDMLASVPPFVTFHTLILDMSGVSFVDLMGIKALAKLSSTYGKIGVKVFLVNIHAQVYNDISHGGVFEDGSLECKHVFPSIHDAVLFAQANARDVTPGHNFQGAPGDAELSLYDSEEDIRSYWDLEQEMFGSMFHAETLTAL
Method: as §1

Duox1 and Duox2 mRNA = assay: Real-time PCR of Duox1 and Duox2 mRNA in IL-4-treated HNE cells; type: cell-based, human
Method: (§2) The total messenger RNA (mRNA) was extracted using TRIzol reagent (Invitrogen, Carlsbad, CA, USA), and was reverse-transcribed using a random hexamer primer, an oligo(dT) primer and SuperScript® III reverse transcriptase (Invitrogen). Quantitative real-time PCR was performed using StepOnePlus Real-Time PCR system (Applied Biosystems, Foster City, CA, USA) and Thunderbird SYBR qPCR mix (Tokyobo, Osaka, Japan). Thermal cycling conditions included the initial stage at 95° C. for 5 minutes, and subsequent 40 cycles at 95° C. for 10 seconds, at 55° C. for 20 seconds and at 72° C. for […].

HNE cells = assay: ASL and fluid meniscus volume measurement in HNE cells; type: cell-based, human
Method: The total volume of ASL and fluid meniscus, which is fluid with the cell culture insert wall, was measured by fluid absorption through filter paper. Whatman filter paper (10 mm diameter circle; GE Healthcare) was placed on the apical size of a 12-well transwell insert (Costar Co.) for 10 seconds. The absorption of the ASL and fluid meniscus was measured from the weight change of the filter paper. The weight of the filter paper was measured using an analysis scale (Sartorius BP61S; Sartorius AG, Gottingen, Germany).

[1] = Auditory brainstem response (ABR) hearing threshold in mice; type: in vivo, mouse; conditions: 10 mg/kg/day for 1 week
Method: (§3) The negative effect of F56 was examined by i.p administering of F56 10 mg/kg to female balb/c mice every 24 hours for 7 days. In 24 hours after the last administration, the hearing of mice was measured and serum was obtained. According to the manufacturer's protocol, the total serum level of triiodothyronine (T3) or thyroxine (T4) using a mouse ELISA kit (Calbiotech, T3043T-100 or T4044T-100).
The hearing level was measured in each mouse by measuring ABR threshold using an auditory-evoking potential workstation and BioSig software (Tucker-Davis Technologies, Alachua, FL, USA). The output from the speaker was calibrated using PCB 377C10 microphone (PCB Piezotronics, Inc. New York, NY, USA) and found to be within ±4 dB over the tested frequency range. After anesthetizing the mice, each ear was stimulated with an ear probe sealed inside the ear canal. The body temperature of the mice was maintained at 38° C. with an isothermal heating water-pad. The intensity of the click sound decreased from 70 dB SPL to 10 dB SPL with a 5-dB decrease. The mean value of ABR was calculated and the auditory threshold was defined as the lowest ABR response until wave I of ABR was no longer visually discernible.

Serum T3 and T4 in mice = type: in vivo, mouse; conditions: 10 mg/kg/day for 1 week
Method: as §3

pendrin mRNA = assay: Pendrin mRNA expression in LPS-treated hAEC, real-time PCR; type: cell-based, human
Method: as §2

T1 sequence (Q8TE54 whole entry, species assumed): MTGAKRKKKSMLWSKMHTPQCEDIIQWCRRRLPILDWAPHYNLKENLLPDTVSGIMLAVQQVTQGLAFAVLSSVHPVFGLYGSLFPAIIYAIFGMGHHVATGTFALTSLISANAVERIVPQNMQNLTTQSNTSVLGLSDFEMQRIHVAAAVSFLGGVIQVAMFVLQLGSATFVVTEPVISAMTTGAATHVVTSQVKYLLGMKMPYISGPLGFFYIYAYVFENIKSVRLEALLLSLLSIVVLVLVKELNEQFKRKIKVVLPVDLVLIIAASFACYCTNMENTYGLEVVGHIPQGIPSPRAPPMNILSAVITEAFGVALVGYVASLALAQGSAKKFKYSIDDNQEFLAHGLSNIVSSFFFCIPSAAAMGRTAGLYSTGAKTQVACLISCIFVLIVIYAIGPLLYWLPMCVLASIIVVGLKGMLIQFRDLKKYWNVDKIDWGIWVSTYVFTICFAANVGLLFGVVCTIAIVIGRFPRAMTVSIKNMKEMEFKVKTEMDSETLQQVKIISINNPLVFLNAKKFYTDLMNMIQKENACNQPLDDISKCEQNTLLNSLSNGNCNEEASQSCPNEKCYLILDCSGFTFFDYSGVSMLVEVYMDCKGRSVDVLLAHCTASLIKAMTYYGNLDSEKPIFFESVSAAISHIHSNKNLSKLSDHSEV

effect on SLC26A7 Cl^−/HCO3^− exchange (SLC26A7): did not affect
effect on SLC26A9 Cl^−/HCO3^− exchange (SLC26A9): did not affect
hearing threshold [1]: not changed
T3 and T4 plasma level (Serum T3 and T4 in mice): not changed
chemical stability (Stability statements): chemically stable
SMILES: CC(C)(C)c1ccc(C2=NC(=Cc3cccs3)C(=O)O2)cc1 [F56, 2-(4-(tert-butyl)phenyl)-4-(thiophen-2-ylmethylene)oxazol-5(4H)-one]
mRNA expression of Duox1 or Duox2 (Duox1 and Duox2 mRNA): did not affect
total volume of ASL and fluid meniscus (HNE cells; IL-4-treated HNE cells expressing a mutant pendrin): not changed
total volume of ASL and fluid meniscus (HNE cells; IL-4 and IL-13-treated HNE cells expressing wild-type pendrin): hardly reduced
mRNA expression level of pendrin (pendrin mRNA): did not change
